The results in this text go back to patent publication US5118685A, “Aminopropanol derivatives of substituted 2-hydroxy-propiophenones, and therapeutic agents containing these compounds” (BASF Aktiengesellschaft, priority 1983, dated 1992).

For one data set, the system named is arrhythmias after infarct in the conscious dog. Nature of the data set: Antiarrhythmic action on arrhythmias after infarct (coronary ligature) in the conscious dog. The conditions noted are these: oral. It is filed as in vivo, dog (male and female beagle dogs). As to the method:
The substances were also tested with regard to their action on arrhythmias after coronary ligature. This method permits conclusions to be drawn as to the action on arrhythmias after infarct in man. Male and female beagle dogs weighing 9-15 kg were used. The ramus descendens of the left coronary artery was ligatured by a modified method of Harris (Circulation, 1, 1318-1328, 1950). Tachycardic, usually ventricular arrhythmias of various origins resulted which were detectable on the ECG, with P loss QRS deformation and T wave elevation. The measure for determining antiarrhythmic action was the frequency (%) of normal heart actions ascertained during a 100-minute control period at 5-minute intervals. Hearbeats had to be at most 29% of the normal during this control period before a substance was administered. After administration, the ECG was run, as in the control period, for 100 minutes at 5-minute intervals, and then for a further 200 minutes at 10-minute intervals.
Take `CC(C)N(CC(O)COc1ccccc1C(=O)CCc1cccn1C)C(C)C` (centres unmarked) [Example 5]: the “inhibition of arrhythmias compared with propafenone and diprafenone (in words)” value is “more active than propafenone and diprafenone at the same rate”.
Still for that read-out and setting: under `CC(C)NCC(O)COc1ccccc1C(=O)CCc1ccn(C)c1` (centres unmarked) [Example 7] stands “more active than propafenone and diprafenone at the same rate”; under `CCCNCC(O)COc1ccccc1C(=O)CCc1cnn(C)c1` (centres unmarked) [Example 9], “inhibited arrhythmias to just as great an extent as propafenone, and to a far greater extent than diprafenone”.

The data set is the same for the next values; noted with them: oral, dose 10.0 mg/kg.
Consider `CC(C)N(CC(O)COc1ccccc1C(=O)CCc1cccn1C)C(C)C` (centres unmarked) [Example 5], for which the “Increase in normal heart actions” value is listed as 66%.
The same measure, in the same setting: under `CC(C)NCC(O)COc1ccccc1C(=O)CCc1ccn(C)c1` (centres unmarked) [Example 7] stands 92%.

The same data set, now with this note: oral, dose 21.5 mg/kg.
`CCC(C)(C)NCC(O)COc1ccccc1C(=O)CCc1ccccc1` (centres unmarked) [diprafenone, 2-[2-hydroxy-3-(1,1-dimethylpropylamino)-propoxy]-ω-phenylpropiophenone, reference compound]: the “Increase in normal heart actions” value is 43%.

Staying with this data set, now noted: relative to propafenone.
Consider `CCCNCC(O)COc1ccccc1C(=O)CCc1cnn(C)c1` (centres unmarked) [Example 9], for which the “oral dosage rate giving inhibition of arrhythmias as great as propafenone (times less)” value is reported as “about 5 times less”.

For a further data set, the system named is aconitine-induced arrythmia in the dog. Nature of the data set: Antiarrhythmic action on aconitine-induced arrythmia in the dog (oral administration). It is filed as in vivo, dog (male or female mongrel dogs). The conditions noted are these: Canis lupus familiaris, po, 1 h, read-out: Prolongation of aconitin infusion period. As to the method: Male or female mongrel dogs weighing 12-15 kg were used. The substances to be tested were administered orally, 40 minutes after induction of anesthesia using Na pentobarbital (30 mg/kg i.v.). Cardiac arrhythmias were induced by infusion of aconitine (5 μg per kg per min), the infusion beginning 60 minutes after administration of the substance. In the ECG of untreated animals, arrhythmias (loss or inversion of P, ventricular tachyarrhythmias) occurred after an average infusion time of 6.4±0.29 min.
When the substances according to the invention were administered in a dose of 10 mg/kg, the time which elapsed before arrhythmias appeared was prolonged. […]; the antiarrhythmic activity is higher (Table 1).
With `CC(C)NCC(O)COc1ccccc1C(=O)CCc1cccn1C` (centres unmarked) [Example 3], the change in vivo at 10 mg/kg stood at 85%.
The same measure, in the same setting: under `CCCNCC(O)COc1ccccc1C(=O)CCc1cccn1C` (centres unmarked) [Example 4] stands 70%.
Still for that read-out and setting: under `CC(C)N(CC(O)COc1ccccc1C(=O)CCc1cccn1C)C(C)C` (centres unmarked) [Example 5] stands 85%.
Still for that read-out and setting: under `CC(C)NCC(O)COc1ccccc1C(=O)CCc1ccn(C)c1` (centres unmarked) [Example 7] stands 193%; under `CCCNCC(O)COc1ccccc1C(=O)CCc1cnn(C)c1` (centres unmarked) [Example 9], 154%; under `CCC(C)(C)NCC(O)COc1ccccc1C(=O)CCc1cnn(C)c1` (centres unmarked) [Example 12], 137%.
`CCC(C)(C)NCC(O)COc1ccccc1C(=O)CCc1ccccc1` (centres unmarked) [diprafenone, 2-[2-hydroxy-3-(1,1-dimethylpropylamino)-propoxy]-ω-phenylpropiophenone, reference compound]: the change in vivo at 10 mg/kg was determined as 33%.

The data set is the same for the next values; noted with them: dog, 10 mg/kg, oral.
With `CCCNCC(O)COc1ccccc1C(=O)CCc1cccn1C` (centres unmarked) [Example 4], the “prolongation of time before arrhythmias appeared, relative to that obtained with propafenone and diprafenone (times greater)” value is given as “twice”.
Still for that read-out and setting: with `CC(C)NCC(O)COc1ccccc1C(=O)CCc1ccn(C)c1` (centres unmarked) [Example 7] the entry was “six times”.

Tested on in another data set: not listed separately
Nature of the data set: in vivo. The conditions noted are these: mouse, ip, single administration i.p., female NMRI mice, approximate values.
With `CC(C)NCC(O)COc1ccccc1C(=O)CCc1cccn1C` (centres unmarked) [Example 3], the LD50 was found to be 68.1 mg/kg.
For `CCCNCC(O)COc1ccccc1C(=O)CCc1cccn1C` (centres unmarked) [Example 4], the LD50 came out at 46.4 mg/kg.
For `CC(C)N(CC(O)COc1ccccc1C(=O)CCc1cccn1C)C(C)C` (centres unmarked) [Example 5], the 50% lethal dose (LD50) was 68.1 mg/kg.
On the same count and under the same terms, under `CC(C)NCC(O)COc1ccccc1C(=O)CCc1ccn(C)c1` (centres unmarked) [Example 7] stands 46.4 mg/kg; under `CCCNCC(O)COc1ccccc1C(=O)CCc1cnn(C)c1` (centres unmarked) [Example 9], 31.6 mg/kg; under `CCC(C)(C)NCC(O)COc1ccccc1C(=O)CCc1cnn(C)c1` (centres unmarked) [Example 12], 68.1 mg/kg.
On the same count and under the same terms, under `CCC(C)(C)NCC(O)COc1ccccc1C(=O)CCc1ccccc1` (centres unmarked) [diprafenone, 2-[2-hydroxy-3-(1,1-dimethylpropylamino)-propoxy]-ω-phenylpropiophenone, reference compound] stands 68.1 mg/kg.

What is called LD50 is the dose expected to kill half of the subjects tested. Higher therefore signals a less toxic substance.
